Reference: patent US4661495A, “Arphamenine-related compounds useful for potentiating the immune response in a living animal” (Zaidan Hojin Biseibutsu Kagaku Kenkyu Kai, priority 1984, dated 1987)

Columns and labels:
tumor = details: earlier filings; cited from earlier work
immune response = details: earlier publications/filings; cited from earlier work
carboxypeptidase = details: J. Antibiot., 37, 682 (1984); cited from earlier work
[1] = system: D.T.H. response with sheep red blood cells; test: effect on cell-mediated or cellular immunity: Delayed Type Hypersensitivity (D.T.H.) with sheep red blood cells; type: in vivo, CDF1-mouse; details: oral, 24 hours after challenge, * P < 0.05
Method: (2) The effect on cell-mediated or cellular immunity:
The effect of the new arphamenine-related compounds on cell-mediated or cellular immunity was evaluated by measuring Delayed Type Hypersensitivity (D.T.H.) using mice which received sheep red blood cell inoculated as antigen into the footpad of mice for immunization (see P. H. Lagrange, G. B. Mackaness and T. E. Miller: "J. Exp. Med.", 139, 1529-1539 (1974)).
A suspension of 10^8 sheep red blood cells (SRBC) in 0.05 ml of physiological saline was subcutaneously injected into one footpad of each CDF1 -mouse (female, 8 weeks-aged, 5 mice in each group) for immunization. Simultaneously, the mouse under test was given orally the test compound at a dosage of 5 mg/Kg, 0.5 mg/Kg or 0.05 mg/Kg as a solution of the test compound which was prepared by dissolving the test compound in physiological saline and then filtering the resulting solution by a millipore filter. On 4 days after the administration of the test compound, 10^8 sheep red blood cells were subcutaneously injected into another footpad of each test mouse for secondary challenge of the D.T.H. response. 24 Hours after the challenge, the thickness of the footpads was measured with calipers. Concurrently, the thickness of footpad of control mice which had received the injection of SRBC and physiological saline without the administration of the test compound was also measured in each mouse.
The effect of the test compound on the DTH response was evaluated by a percentage of increase in footpad thickness as calculated according to the following equation: [formula]

ICR-strain mice = test: Toxicity after intraperitoneal administration; type: in vivo; details: 100 mg/Kg intraperitoneally, ICR-strain mice (male, 5 weeks-aged)
carboxypeptidase A = target: T1, carboxypeptidase A (Bos taurus, UniProt P00730); test: inhibitory activity of the compounds to carboxypeptidase A; type: biochemical, bovine; details: hippuryl-L-phenylalanine substrate, pH 7.5, 37° C., 30 minutes; read-out: IC50 (50% Inhibition Concentration) (converted)
T1 construct: purchased Sigma Co. Type 1; host or cells: bovine pancreas
T1 sequence (P00730 111-417 limits assumed): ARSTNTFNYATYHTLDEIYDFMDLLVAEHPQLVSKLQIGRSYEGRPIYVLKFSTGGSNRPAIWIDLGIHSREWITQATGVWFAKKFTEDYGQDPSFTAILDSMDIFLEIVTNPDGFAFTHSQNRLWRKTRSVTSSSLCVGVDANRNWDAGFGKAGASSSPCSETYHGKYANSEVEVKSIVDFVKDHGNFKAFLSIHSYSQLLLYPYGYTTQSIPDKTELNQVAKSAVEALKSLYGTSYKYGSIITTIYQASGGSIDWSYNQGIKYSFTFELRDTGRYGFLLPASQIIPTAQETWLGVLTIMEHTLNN
Method: (1) Method of testing the inhibitory activity of the compounds to carboxypeptidase A: The carboxypeptidase A-inhibitory activity was determined according to a modification of the method of Hayakari et al. (M. Hayakari et al., "Analytical Biochemistry" 84, 361-369, 1978). Thus, a mixture of 0.05 ml of a solution of 10 mM hippuryl-L-phenylalanine (as substrate), 0.25 ml of 0.05 M Tris-hydrochloride buffer (pH 7.5) containing 0.9 M NaCl and 0.15 ml of a solution containing a test compound as produced in Example 1, 2, 3 or 4 shown hereinafter was heated at 37° C. for 3 minutes. To said mixture was then added 0.05 ml of a carboxypeptidase A (Type 1, as extracted from bovine pancreas, a product of Sigma Co.), and the enzymatic reaction was effected at 37° C. for 30 minutes. The reaction solution was admixed with 0.03 ml of aqueous 1N sodium hydroxide to stop the reaction. After allowing to stand at ambient temperature for 15 minutes, the reaction solution was admixed with 2 ml of 0.06 M phosphate buffer (pH 7.2) and with 2 ml of a solution of 1% cyanuric chloride in ethylene glycol monomethylester. After the reaction solution was allowed to stand at ambient temperature for 5 minutes, absorbance (a) at 382 nm of the reaction solution was measured. For the blank test, the above procedure was repeated using said buffer solutions without the test compound, and the absorbance (b) was measured in the blank test. The percentage for inhibition to carboxypeptidase A was calculated according to the equation: [formula] On the basis of the values of percentages of inhibition measured by the above procedure, 50% Inhibition Concentration (IC50) was evaluated.

Molecule	antitumor activity (tumor)	immunopotentiating activity (immune response)	carboxypeptidase-inhibitory activity (carboxypeptidase)	Percentage of increase in footpad thickness ([1]; 0.05 mg/Kg) [Percentage]	Percentage of increase in footpad thickness ([1]; 0.5 mg/Kg) [Percentage]	Percentage of increase in footpad thickness ([1]; 5 mg/Kg) [Percentage]	death (ICR-strain mice)	IC50 (carboxypeptidase A) [nM]
N=C(N)NCCCC(N)C(=O)CC(Cc1ccc(O)cc1)C(=O)O (centres unmarked) [arphamenine B]	antitumor activity	immunopotentiating activity	–	–	–	–	–	–
benzylmalic acid	–	shows an immunopotentiating activity	having a carboxypeptidase-inhibitory activity	–	–	–	–	–
N=C(N)NCCCC(N)C(=O)CC(Cc1ccccc1)C(=O)O (centres unmarked) [arphamenine A]	antitumor activity	immunopotentiating activity	–	–	–	–	–	–
Cc1cc(C)nc(NCCCC(NC(=O)c2ccccc2)C(=O)CC(Cc2ccccc2)C(=O)O)n1 (centres unmarked) [Example 1 (b), 5-benzoylamino-8-[(4,6-dimethylpyrimidin-2-yl)amino]-4-oxo-2-phenylmethyloctanoic acid]	–	–	–	107	121	128	no death	40.9
Cc1cc(C)nc(NCCCC(NC(=O)OCc2ccccc2)C(=O)CC(Cc2ccc(O)cc2)C(=O)O)n1 (centres unmarked) [Example 4 (b), 5-benzyloxycarbonylamino-8-[(4,6-dimethylpyrimidin-2-yl)amino]-2-(4'-hydroxyphenylmethyl)-4-oxo-octanoic acid]	–	–	–	110	123	145	no death	655
Cc1cc(C)nc(NCCCC(NC(=O)c2ccccc2)C(=O)CC(Cc2ccc(O)cc2)C(=O)O)n1 (centres unmarked) [Example 2 (b), 5-benzoylamino-8-[(4,6-dimethylpyrimidin-2-yl)amino]-2-(4'-hydroxyphenylmethyl)-4-oxo-octanoic acid]	–	–	–	113	130	144	no death	17.4
Cc1cc(C)nc(NCCCC(NC(=O)OCc2ccccc2)C(=O)CC(Cc2ccccc2)C(=O)O)n1 (centres unmarked) [Example 3 (b), 5-benzyloxycarbonylamino-8-[(4,6-dimethylpyrimidin-2-yl)amino]-4-oxo-2-phenylmethyloctanoic acid]	–	–	–	110	120	136	no death	123
